Assays:
Experiment in all cases: relative viability (nuclei count vs DMSO), 5 days (fraction); higher = more cells survive
Cabozantinib + Alpelisib = compound: COc1cc2nccc(Oc3ccc(NC(=O)C4(C(=O)Nc5ccc(F)cc5)CC4)cc3)c2cc1OC [Cabozantinib] + Cc1nc(NC(=O)N2CCC[C@H]2C(N)=O)sc1-c1ccnc(C(C)(C)C(F)(F)F)c1 [Alpelisib] (partner 2 µM)
In short: (§1)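 After 5 days of treatment, lung cancer cells in 1536-well plates were fixed and stained in a single step (final 0.05% Triton X-100, 1% formaldehyde, 1 ug/ml Hoechst) and their nuclei counted on 4× images. Treatment had been applied by pin tool the day after seeding as one drug alone or as a fixed anchor-drug dose with five library-drug doses (not always all listed) in √10 steps. Relative viability is the nuclei count of treated wells divided by that of vehicle wells, and values are medians of duplicate plates.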

Cabozantinib + Olaparib = compound: COc1cc2nccc(Oc3ccc(NC(=O)C4(C(=O)Nc5ccc(F)cc5)CC4)cc3)c2cc1OC [Cabozantinib] + O=C(c1cc(Cc2n[nH]c(=O)c3ccccc23)ccc1F)N1CCN(C(=O)C2CC2)CC1 [Olaparib] (partner 8 µM)
In short: as §1

[1] = compound: COc1cc2nccc(Oc3ccc(NC(=O)C4(C(=O)Nc5ccc(F)cc5)CC4)cc3)c2cc1OC [Cabozantinib] + C[C@@H](Oc1cc(-c2cnn(C3CCNCC3)c2)cnc1N)c1c(Cl)ccc(F)c1Cl [Crizotinib] (partner 1 µM)
In short: as §1

Kobe2602 + Foretinib = compound: C1=CC(=CC=C1NC(=S)NNC2=C(C=C(C=C2[N+](=O)[O-])C(F)(F)F)[N+](=O)[O-])F [Kobe2602] + COc1cc2c(Oc3ccc(NC(=O)C4(C(=O)Nc5ccc(F)cc5)CC4)cc3F)ccnc2cc1OCCCN1CCOCC1 [Foretinib] (partner 0.25 µM)
In short: as §1

How did the relative viability (Cabozantinib + Alpelisib; first compound 0.02 µM) turn out when UMC-11 was run?
Its relative viability is 0.848.

What about the relative viability (Cabozantinib + Alpelisib; first compound 0.06325 µM) of the same cell line?
The relative viability was 1.1.

What about the relative viability (Cabozantinib + Alpelisib; first compound 0.2 µM) of the same cell line?
Its relative viability is 1.01.

What about the relative viability (Cabozantinib + Alpelisib; first compound 0.6325 µM) of the same cell line?
The relative viability was 1.05.

And the relative viability (Cabozantinib + Alpelisib; first compound 2 µM)?
The relative viability was 1.02.

What about the relative viability (Cabozantinib + Olaparib; first compound 0.02 µM) of the same cell line?
The relative viability was 0.399.

And the relative viability (Cabozantinib + Olaparib; first compound 0.06325 µM)?
Its relative viability is 0.304.

And the relative viability (Cabozantinib + Olaparib; first compound 0.2 µM)?
The relative viability was 0.502.

What about the relative viability (Cabozantinib + Olaparib; first compound 0.6325 µM) of the same cell line?
Its relative viability is 0.312.

What about the relative viability (Cabozantinib + Olaparib; first compound 2 µM) of the same cell line?
The relative viability was 0.391.

What about the relative viability ([1]; first compound 0.02 µM) of the same cell line?
The relative viability was 0.609.

What about the relative viability ([1]; first compound 0.06325 µM) of the same cell line?
Its relative viability is 0.592.

What about the relative viability ([1]; first compound 0.2 µM) of the same cell line?
Its relative viability is 0.717.

What about the relative viability ([1]; first compound 0.6325 µM) of the same cell line?
The relative viability was 0.668.

And the relative viability ([1]; first compound 2 µM)?
Its relative viability is 0.578.

What about the relative viability (Kobe2602 + Foretinib; first compound 0.2 µM) of the same cell line?
The relative viability was 1.03.

And the relative viability (Kobe2602 + Foretinib; first compound 0.6325 µM)?
The relative viability was 0.957.

And the relative viability (Kobe2602 + Foretinib; first compound 2 µM)?
The relative viability was 0.96.

And the relative viability (Kobe2602 + Foretinib; first compound 6.325 µM)?
The relative viability was 0.953.

What about the relative viability (Kobe2602 + Foretinib; first compound 20 µM) of the same cell line?
The relative viability was 1.08.

Source: the supplement of paper PMC10307832
